Measurements taken from patent US20070099877A1, “N-aryl-thienopyrimidin-4-amines and analogs as activators of caspases and inducers of apoptosis and the use thereof” (Cytovia, Inc., priority 2005, published 2007).
Counter-ions that a name gives are not always drawn.

system: human breast cancer cell line T-47D; experiment: Caspase cascade activation (DEVD-R110 fluorogenic substrate) in T-47D cells; format: cell-based; conditions: Homo sapiens, T47D, 24 h, T47D cells, 24 h; read-out: Caspase activation Potency EC50 T47D (24 h)
Method: (§1) Human breast cancer cell line T-47D, human lung cancer cell line H1299, human hepatocellular carcinoma cell line SNU398, human colon carcinoma cell line HCT116 were grown according to media component mixtures designated by American Type Culture Collection+10% FCS (Invitrogen Corporation), in a 5% CO2-95% humidity incubator at 37° C. T-47D and H1299 cells were maintained at a cell density between 50 and 80% confluency at a cell density of 0.1 to 0.6×10^6 cells/mL. Cells were harvested at 600×g and resuspended at 0.65×10^6 cells/mL into appropriate media+10% FCS. An aliquot of 22.5 μL of cells was added to a well of a 384-well microtiter plate containing 2.5 μL of a 10% DMSO in RPMI-1640 media solution containing 0.16 to 100 μM of N-(2,5-dimethoxyphenyl)-2-methylthieno[3,2-d]pyrimidin-4-amine or other test compound (0.016 to 10 μM final). An aliquot of 22.5 μL of cells was added to a well of a 384-well microtiter plate containing 2.5 μL of a 10% DMSO in RPMI-1640 media solution without test compound as the control sample. The samples were mixed by agitation and then incubated at 37° C. for 24 h or 48 h in a 5% CO2-95% humidity incubator. After incubation, the samples were removed from the incubator and 25 μL of a solution containing 14 μM of N-(Ac-DEVD)-N′-ethoxycarbonyl-R110 (SEQ ID NO.:1) fluorogenic substrate (Cytovia, Inc.; WO99/18856), 20% sucrose (Sigma), 20 mM DTT (Sigma), 200 mM NaCl (Sigma), 40 mM Na PIPES buffer pH 7.2 (Sigma), and 500 μg/mL lysolecithin (Calbiochem) was added. The samples were mixed by agitation and incubated at room temperature. Using a fluorescent plate reader (Model SPECTRAfluor Plus, Tecan), an initial reading (T=0) was made approximately 1-2 min after addition of the substrate solution, employing excitation at 485 nm and emission at 530 nm, to determine the background fluorescence of the control sample. After the 3 h incubation, the samples were read for fluorescence as above (T=3 h).
(§2) The Relative Fluorescence Unit values (RFU) were used to calculate the sample readings as follows: RFU(T=3h)−Control RFU(T=O)=Net RFU(T=3h)
(§3) The activity of caspase cascade activation was determined by the ratio of the net RFU value for N-(2,5-dimethoxyphenyl)-2-methylthieno[3,2-d]pyrimidin-4-amine or other test compound to that of control samples. The EC50 (nM) was determined by a sigmoidal dose-response calculation (Prism 3.0, GraphPad Software Inc.).

Row | EC50 [µM] | Compound
1 | 5.07 | COc1ccc([N+](=O)[O-])cc1Nc1ncnc2ccsc12 [Example 37, N-(2-Methoxy-5-nitrophenyl)thieno[3,2-d]pyrimidin-4-amine]
2 | 1.81 | COc1ccc(Nc2ncnc3ccsc23)cc1OC [Example 14, N-(3,4-Dimethoxyphenyl)thieno[3,2-d]pyrimidin-4-amine hydrochloride]
3 | > 10 | COc1ccc(O)c(Nc2ncnc3ccsc23)c1 [Example 42, N-(2-Hydroxy-5-methoxyphenyl)thieno[3,2-d]pyrimidin-4-amine]
4 | 0.422 | COc1ccc(OC)c(Nc2ncnc3sc(C)cc23)c1 [Example 28, N-(2,5-Dimethoxyphenyl)-6-methylthieno[2,3-d]pyrimidin-4-amine hydrochloride]
5 | 0.417 | COc1ccc(C)cc1Nc1ncnc2ccsc12 [Example 31, N-(2-Methoxy-5-methylphenyl)thieno[3,2-d]pyrimidin-4-amine]
6 | 0.016 | COc1ccc(OC)c(Nc2ncnc3cc(Br)sc23)c1 [Example 20, 6-Bromo-N-(2,5-dimethoxyphenyl)thieno[3,2-d]pyrimidin-4-amine]
7 | 0.121 | COc1ccc(OC)c(Nc2nc(C)nc3sccc23)c1 [Example 3, N-(2,5-Dimethoxyphenyl)-2-methylthieno[2,3-d]pyrimidin-4-amine]
8 | > 10 | COc1ccc(Nc2ncnc3scc(C)c23)cc1 [Example 23, N-(4-Methoxyphenyl)-5-methylthieno[2,3-d]pyrimidin-4-amine]
9 | 0.555 | COc1cccc(Nc2ncnc3ccsc23)c1 [Example 11, N-(3-Methoxyphenyl)thieno[3,2-d]pyrimidin-4-amine hydrochloride]
10 | 0.02 | COc1ccc(OC)c(Nc2nc(SC)nc3ccsc23)c1 [Example 27, N-(2,5-Dimethoxyphenyl)-2-(methylthio)thieno[3,2-d]pyrimidin-4-amine]
11 | > 10 | COc1cccc(OC)c1Nc1ncnc2ccsc12 [Example 62, N-(2,6-Dimethoxyphenyl)thieno[3,2-d]pyrimidin-4-amine]
12 | > 10 | CCOc1ccc(OCC)c(Nc2ncnc3ccsc23)c1 [Example 36, N-(2,5-Diethoxyphenyl)thieno[3,2-d]pyrimidin-4-amine]
13 | > 10 | Cc1cc(Nc2ncnc3ccsc23)no1 [Example 21, N-(5-Methylisoxazol-3-yl)thieno[3,2-d]pyrimidin-4-amine hydrochloride]

same assay, conditions: Homo sapiens, T47D, 48 h, T-47D cells, 48 h; read-out: Caspase activation Potency EC50 T-47D (48 h)

Row | EC50 [µM] | Compound
14 | 5.33 | COc1ccc([N+](=O)[O-])cc1Nc1ncnc2ccsc12 [Example 37, N-(2-Methoxy-5-nitrophenyl)thieno[3,2-d]pyrimidin-4-amine]
15 | 2.02 | COc1ccc(Nc2ncnc3ccsc23)cc1OC [Example 14, N-(3,4-Dimethoxyphenyl)thieno[3,2-d]pyrimidin-4-amine hydrochloride]
16 | > 10 | COc1ccc(O)c(Nc2ncnc3ccsc23)c1 [Example 42, N-(2-Hydroxy-5-methoxyphenyl)thieno[3,2-d]pyrimidin-4-amine]
17 | 0.542 | COc1ccc(OC)c(Nc2ncnc3sc(C)cc23)c1 [Example 28, N-(2,5-Dimethoxyphenyl)-6-methylthieno[2,3-d]pyrimidin-4-amine hydrochloride]
18 | 0.519 | COc1ccc(C)cc1Nc1ncnc2ccsc12 [Example 31, N-(2-Methoxy-5-methylphenyl)thieno[3,2-d]pyrimidin-4-amine]
19 | 0.037 | COc1ccc(OC)c(Nc2ncnc3cc(Br)sc23)c1 [Example 20, 6-Bromo-N-(2,5-dimethoxyphenyl)thieno[3,2-d]pyrimidin-4-amine]
20 | 0.311 | COc1ccc(OC)c(Nc2nc(C)nc3sccc23)c1 [Example 3, N-(2,5-Dimethoxyphenyl)-2-methylthieno[2,3-d]pyrimidin-4-amine]
21 | > 10 | COc1ccc(Nc2ncnc3scc(C)c23)cc1 [Example 23, N-(4-Methoxyphenyl)-5-methylthieno[2,3-d]pyrimidin-4-amine]
22 | 1.19 | COc1cccc(Nc2ncnc3ccsc23)c1 [Example 11, N-(3-Methoxyphenyl)thieno[3,2-d]pyrimidin-4-amine hydrochloride]
23 | 0.036 | COc1ccc(OC)c(Nc2nc(SC)nc3ccsc23)c1 [Example 27, N-(2,5-Dimethoxyphenyl)-2-(methylthio)thieno[3,2-d]pyrimidin-4-amine]
24 | > 10 | COc1cccc(OC)c1Nc1ncnc2ccsc12 [Example 62, N-(2,6-Dimethoxyphenyl)thieno[3,2-d]pyrimidin-4-amine]
25 | 0.873 | CCOc1ccc(OCC)c(Nc2ncnc3ccsc23)c1 [Example 36, N-(2,5-Diethoxyphenyl)thieno[3,2-d]pyrimidin-4-amine]
26 | > 10 | Cc1cc(Nc2ncnc3ccsc23)no1 [Example 21, N-(5-Methylisoxazol-3-yl)thieno[3,2-d]pyrimidin-4-amine hydrochloride]

system: human lung cancer cell line H1299; experiment: Caspase cascade activation in H1299 cells; format: cell-based; conditions: NCI-H1299, 24 h, read-out: Caspase activation Potency EC50 H1299 (24 h)
Method: as §1, §2, §3

Row | EC50 [µM] | Compound
27 | 5.06 | COc1ccc([N+](=O)[O-])cc1Nc1ncnc2ccsc12 [Example 37, N-(2-Methoxy-5-nitrophenyl)thieno[3,2-d]pyrimidin-4-amine]
28 | > 10 | COc1ccc(Nc2ncnc3ccsc23)cc1OC [Example 14, N-(3,4-Dimethoxyphenyl)thieno[3,2-d]pyrimidin-4-amine hydrochloride]
29 | > 10 | COc1ccc(O)c(Nc2ncnc3ccsc23)c1 [Example 42, N-(2-Hydroxy-5-methoxyphenyl)thieno[3,2-d]pyrimidin-4-amine]
30 | > 10 | COc1ccc(OC)c(Nc2ncnc3sc(C)cc23)c1 [Example 28, N-(2,5-Dimethoxyphenyl)-6-methylthieno[2,3-d]pyrimidin-4-amine hydrochloride]
31 | > 10 | COc1ccc(C)cc1Nc1ncnc2ccsc12 [Example 31, N-(2-Methoxy-5-methylphenyl)thieno[3,2-d]pyrimidin-4-amine]
32 | 0.114 | COc1ccc(OC)c(Nc2ncnc3cc(Br)sc23)c1 [Example 20, 6-Bromo-N-(2,5-dimethoxyphenyl)thieno[3,2-d]pyrimidin-4-amine]
33 | 5 | COc1ccc(OC)c(Nc2nc(C)nc3sccc23)c1 [Example 3, N-(2,5-Dimethoxyphenyl)-2-methylthieno[2,3-d]pyrimidin-4-amine]
34 | > 10 | COc1ccc(Nc2ncnc3scc(C)c23)cc1 [Example 23, N-(4-Methoxyphenyl)-5-methylthieno[2,3-d]pyrimidin-4-amine]
35 | 5.37 | COc1cccc(Nc2ncnc3ccsc23)c1 [Example 11, N-(3-Methoxyphenyl)thieno[3,2-d]pyrimidin-4-amine hydrochloride]
36 | 0.041 | COc1ccc(OC)c(Nc2nc(SC)nc3ccsc23)c1 [Example 27, N-(2,5-Dimethoxyphenyl)-2-(methylthio)thieno[3,2-d]pyrimidin-4-amine]
37 | > 10 | COc1cccc(OC)c1Nc1ncnc2ccsc12 [Example 62, N-(2,6-Dimethoxyphenyl)thieno[3,2-d]pyrimidin-4-amine]
38 | 5.09 | CCOc1ccc(OCC)c(Nc2ncnc3ccsc23)c1 [Example 36, N-(2,5-Diethoxyphenyl)thieno[3,2-d]pyrimidin-4-amine]
39 | > 10 | Cc1cc(Nc2ncnc3ccsc23)no1 [Example 21, N-(5-Methylisoxazol-3-yl)thieno[3,2-d]pyrimidin-4-amine hydrochloride]

system: human hepatocellular carcinoma cell line SNU398; experiment: Caspase cascade activation in SNU398 cells; format: cell-based; conditions: Homo sapiens, SNU-398, 48 h, read-out: Caspase activation Potency EC50 SNU398 (48 h)
Method: as §1, §2, §3

Row | EC50 [µM] | Compound
40 | 3.57 | COc1ccc([N+](=O)[O-])cc1Nc1ncnc2ccsc12 [Example 37, N-(2-Methoxy-5-nitrophenyl)thieno[3,2-d]pyrimidin-4-amine]
41 | > 10 | COc1ccc(Nc2ncnc3ccsc23)cc1OC [Example 14, N-(3,4-Dimethoxyphenyl)thieno[3,2-d]pyrimidin-4-amine hydrochloride]
42 | > 10 | COc1ccc(O)c(Nc2ncnc3ccsc23)c1 [Example 42, N-(2-Hydroxy-5-methoxyphenyl)thieno[3,2-d]pyrimidin-4-amine]
43 | > 10 | COc1ccc(OC)c(Nc2ncnc3sc(C)cc23)c1 [Example 28, N-(2,5-Dimethoxyphenyl)-6-methylthieno[2,3-d]pyrimidin-4-amine hydrochloride]
44 | > 10 | COc1ccc(C)cc1Nc1ncnc2ccsc12 [Example 31, N-(2-Methoxy-5-methylphenyl)thieno[3,2-d]pyrimidin-4-amine]
45 | 0.431 | COc1ccc(OC)c(Nc2ncnc3cc(Br)sc23)c1 [Example 20, 6-Bromo-N-(2,5-dimethoxyphenyl)thieno[3,2-d]pyrimidin-4-amine]
46 | 4.66 | COc1ccc(OC)c(Nc2nc(C)nc3sccc23)c1 [Example 3, N-(2,5-Dimethoxyphenyl)-2-methylthieno[2,3-d]pyrimidin-4-amine]
47 | > 10 | COc1ccc(Nc2ncnc3scc(C)c23)cc1 [Example 23, N-(4-Methoxyphenyl)-5-methylthieno[2,3-d]pyrimidin-4-amine]
48 | 5.73 | COc1cccc(Nc2ncnc3ccsc23)c1 [Example 11, N-(3-Methoxyphenyl)thieno[3,2-d]pyrimidin-4-amine hydrochloride]
49 | 0.206 | COc1ccc(OC)c(Nc2nc(SC)nc3ccsc23)c1 [Example 27, N-(2,5-Dimethoxyphenyl)-2-(methylthio)thieno[3,2-d]pyrimidin-4-amine]
50 | > 10 | COc1cccc(OC)c1Nc1ncnc2ccsc12 [Example 62, N-(2,6-Dimethoxyphenyl)thieno[3,2-d]pyrimidin-4-amine]
51 | 5.18 | CCOc1ccc(OCC)c(Nc2ncnc3ccsc23)c1 [Example 36, N-(2,5-Diethoxyphenyl)thieno[3,2-d]pyrimidin-4-amine]
52 | > 10 | Cc1cc(Nc2ncnc3ccsc23)no1 [Example 21, N-(5-Methylisoxazol-3-yl)thieno[3,2-d]pyrimidin-4-amine hydrochloride]

system: human colon carcinoma cell line HCT116; experiment: Caspase cascade activation in HCT116 cells; format: cell-based; conditions: Homo sapiens, HCT-116, 48 h, read-out: Caspase activation Potency EC50 HCT116 (48 h)
Method: as §1, §2, §3

Row | EC50 [µM] | Compound
53 | > 10 | COc1ccc([N+](=O)[O-])cc1Nc1ncnc2ccsc12 [Example 37, N-(2-Methoxy-5-nitrophenyl)thieno[3,2-d]pyrimidin-4-amine]
54 | > 10 | COc1ccc(Nc2ncnc3ccsc23)cc1OC [Example 14, N-(3,4-Dimethoxyphenyl)thieno[3,2-d]pyrimidin-4-amine hydrochloride]
55 | > 10 | COc1ccc(O)c(Nc2ncnc3ccsc23)c1 [Example 42, N-(2-Hydroxy-5-methoxyphenyl)thieno[3,2-d]pyrimidin-4-amine]
56 | > 10 | COc1ccc(OC)c(Nc2ncnc3sc(C)cc23)c1 [Example 28, N-(2,5-Dimethoxyphenyl)-6-methylthieno[2,3-d]pyrimidin-4-amine hydrochloride]
57 | > 10 | COc1ccc(C)cc1Nc1ncnc2ccsc12 [Example 31, N-(2-Methoxy-5-methylphenyl)thieno[3,2-d]pyrimidin-4-amine]
58 | 0.341 | COc1ccc(OC)c(Nc2ncnc3cc(Br)sc23)c1 [Example 20, 6-Bromo-N-(2,5-dimethoxyphenyl)thieno[3,2-d]pyrimidin-4-amine]
59 | 5.55 | COc1ccc(OC)c(Nc2nc(C)nc3sccc23)c1 [Example 3, N-(2,5-Dimethoxyphenyl)-2-methylthieno[2,3-d]pyrimidin-4-amine]
60 | > 10 | COc1ccc(Nc2ncnc3scc(C)c23)cc1 [Example 23, N-(4-Methoxyphenyl)-5-methylthieno[2,3-d]pyrimidin-4-amine]
61 | > 10 | COc1cccc(Nc2ncnc3ccsc23)c1 [Example 11, N-(3-Methoxyphenyl)thieno[3,2-d]pyrimidin-4-amine hydrochloride]
62 | 0.319 | COc1ccc(OC)c(Nc2nc(SC)nc3ccsc23)c1 [Example 27, N-(2,5-Dimethoxyphenyl)-2-(methylthio)thieno[3,2-d]pyrimidin-4-amine]
63 | > 10 | COc1cccc(OC)c1Nc1ncnc2ccsc12 [Example 62, N-(2,6-Dimethoxyphenyl)thieno[3,2-d]pyrimidin-4-amine]
64 | > 10 | CCOc1ccc(OCC)c(Nc2ncnc3ccsc23)c1 [Example 36, N-(2,5-Diethoxyphenyl)thieno[3,2-d]pyrimidin-4-amine]
65 | > 10 | Cc1cc(Nc2ncnc3ccsc23)no1 [Example 21, N-(5-Methylisoxazol-3-yl)thieno[3,2-d]pyrimidin-4-amine hydrochloride]
